# Reference: PubChem BioAssay (NCI)
#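 Where inhibition never reached the appropriate level, the endpoint shown equals the highest concentration tested. Otherwise, values were interpolated linearly from a five-concentration, 48-hour dose response in 96-well plates. The concentration for 50% growth inhibition is given as GI50. At the TGI there is no net growth.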
# Assays:
# Experiment in all cases: NCI-60 cell line screen, 48 h
# NCI-H460 lung = tested on: NCI-H460 lung
# HL-60(TB) leukemia = tested on: HL-60(TB) leukemia
# LOX IMVI melanoma = tested on: LOX IMVI melanoma
# SR leukemia = tested on: SR leukemia
# K-562 leukemia = tested on: K-562 leukemia
# SF-268 CNS = tested on: SF-268 CNS
# UACC-62 melanoma = tested on: UACC-62 melanoma
# OVCAR-8 ovarian = tested on: OVCAR-8 ovarian
# UO-31 renal = tested on: UO-31 renal
# TK-10 renal = tested on: TK-10 renal
# RXF 393 renal = tested on: RXF 393 renal
# SK-MEL-5 melanoma = tested on: SK-MEL-5 melanoma
# SNB-75 CNS = tested on: SNB-75 CNS
# HOP-62 NSCLC = tested on: HOP-62 NSCLC
# BT-549 breast = tested on: BT-549 breast
# NCI-H522 lung = tested on: NCI-H522 lung
# RPMI-8226 leukemia = tested on: RPMI-8226 leukemia
# NCI-H23 lung = tested on: NCI-H23 lung
# SN12C renal = tested on: SN12C renal
# CAKI-1 renal = tested on: CAKI-1 renal
# HS 578T breast = tested on: HS 578T breast
# MDA-MB-468 breast = tested on: MDA-MB-468 breast
# 786-0 renal = tested on: 786-0 renal
# EKVX NSCLC = tested on: EKVX NSCLC
# UACC-257 melanoma = tested on: UACC-257 melanoma
# SW-620 colon = tested on: SW-620 colon
# A549 NSCLC = tested on: A549 NSCLC
# OVCAR-4 ovarian = tested on: OVCAR-4 ovarian
# MALME-3M melanoma = tested on: MALME-3M melanoma
# NCI/ADR-RES ovarian = tested on: NCI/ADR-RES ovarian
# SK-MEL-2 melanoma = tested on: SK-MEL-2 melanoma
# SNB-19 CNS = tested on: SNB-19 CNS
# HCC-2998 colon = tested on: HCC-2998 colon
# COLO 205 colon = tested on: COLO 205 colon
# ACHN renal = tested on: ACHN renal
# OVCAR-5 ovarian = tested on: OVCAR-5 ovarian
# SK-OV-3 ovarian = tested on: SK-OV-3 ovarian
# NCI-H226 lung = tested on: NCI-H226 lung
# HT29 colon = tested on: HT29 colon
# MOLT-4 leukemia = tested on: MOLT-4 leukemia
# DU-145 prostate = tested on: DU-145 prostate
# OVCAR-3 ovarian = tested on: OVCAR-3 ovarian
# HCT-116 colon = tested on: HCT-116 colon
# HCT-15 colon = tested on: HCT-15 colon
# SF-539 CNS = tested on: SF-539 CNS
# T-47D breast = tested on: T-47D breast
# HOP-92 NSCLC = tested on: HOP-92 NSCLC
# MDA-MB-231 breast = tested on: MDA-MB-231 breast
# SK-MEL-28 melanoma = tested on: SK-MEL-28 melanoma
# MCF7 breast = tested on: MCF7 breast
# MDA-MB-435 = tested on: MDA-MB-435
# KM12 colon = tested on: KM12 colon
# SF-295 CNS = tested on: SF-295 CNS
# M14 melanoma = tested on: M14 melanoma
# U251 CNS = tested on: U251 CNS
# PC-3 prostate = tested on: PC-3 prostate
# IGROV1 ovarian = tested on: IGROV1 ovarian
# CCRF-CEM leukemia = tested on: CCRF-CEM leukemia
# A498 renal = tested on: A498 renal
smiles,measurement,setting,value
CS(=O)(=O)Nc1cc(-c2ccc3ncnc(N4CCc5cc(F)c(Cl)cc54)c3c2)cnc1Cl,GI50,NCI-H460 lung,0.922 µM
same,TGI,NCI-H460 lung,13.1 µM
same,GI50,HL-60(TB) leukemia,0.484 µM
same,TGI,HL-60(TB) leukemia,15.1 µM
same,GI50,LOX IMVI melanoma,1.05 µM
same,TGI,LOX IMVI melanoma,4.09 µM
same,GI50,SR leukemia,1.52 µM
same,TGI,SR leukemia,12.9 µM
same,GI50,K-562 leukemia,5.37 µM
same,TGI,K-562 leukemia,68.8 µM
same,GI50,SF-268 CNS,1.65 µM
same,TGI,SF-268 CNS,47.9 µM
same,GI50,UACC-62 melanoma,0.382 µM
same,TGI,UACC-62 melanoma,2.57 µM
same,GI50,OVCAR-8 ovarian,1.87 µM
same,TGI,OVCAR-8 ovarian,20.5 µM
same,GI50,UO-31 renal,0.252 µM
same,TGI,UO-31 renal,4.05 µM
same,GI50,TK-10 renal,0.644 µM
same,TGI,TK-10 renal,9.62 µM
same,GI50,RXF 393 renal,0.577 µM
same,TGI,RXF 393 renal,3.17 µM
same,GI50,SK-MEL-5 melanoma,0.85 µM
same,TGI,SK-MEL-5 melanoma,2.61 µM
same,GI50,SNB-75 CNS,0.254 µM
same,TGI,SNB-75 CNS,3 µM
same,GI50,HOP-62 NSCLC,0.704 µM
same,TGI,HOP-62 NSCLC,7.36 µM
same,GI50,BT-549 breast,1.48 µM
same,TGI,BT-549 breast,5.11 µM
same,GI50,NCI-H522 lung,1.62 µM
same,TGI,NCI-H522 lung,14.3 µM
same,GI50,RPMI-8226 leukemia,1.84 µM
same,TGI,RPMI-8226 leukemia,> 100 µM
same,GI50,NCI-H23 lung,1.63 µM
same,TGI,NCI-H23 lung,9.94 µM
same,GI50,SN12C renal,1.68 µM
same,TGI,SN12C renal,36.5 µM
same,GI50,CAKI-1 renal,0.748 µM
same,TGI,CAKI-1 renal,7.32 µM
same,GI50,HS 578T breast,0.166 µM
same,TGI,HS 578T breast,1.13 µM
same,GI50,MDA-MB-468 breast,0.211 µM
same,TGI,MDA-MB-468 breast,1.38 µM
same,GI50,786-0 renal,1.64 µM
same,TGI,786-0 renal,27 µM
same,GI50,EKVX NSCLC,0.559 µM
same,TGI,EKVX NSCLC,3.63 µM
same,GI50,UACC-257 melanoma,1.39 µM
same,TGI,UACC-257 melanoma,11 µM
same,GI50,SW-620 colon,2.51 µM
same,TGI,SW-620 colon,17.4 µM
same,GI50,A549 NSCLC,1.64 µM
same,TGI,A549 NSCLC,8.67 µM
same,GI50,OVCAR-4 ovarian,2.35 µM
same,TGI,OVCAR-4 ovarian,21.1 µM
same,GI50,MALME-3M melanoma,0.174 µM
same,TGI,MALME-3M melanoma,1.55 µM
same,GI50,NCI/ADR-RES ovarian,1.95 µM
same,TGI,NCI/ADR-RES ovarian,15.3 µM
same,GI50,SK-MEL-2 melanoma,1.73 µM
same,TGI,SK-MEL-2 melanoma,5.8 µM
same,GI50,SNB-19 CNS,1.64 µM
same,TGI,SNB-19 CNS,13.4 µM
same,GI50,HCC-2998 colon,1.24 µM
same,TGI,HCC-2998 colon,8.36 µM
same,GI50,COLO 205 colon,1.61 µM
same,TGI,COLO 205 colon,9.61 µM
same,GI50,ACHN renal,1.66 µM
same,TGI,ACHN renal,> 100 µM
same,GI50,OVCAR-5 ovarian,1.87 µM
same,TGI,OVCAR-5 ovarian,23.5 µM
same,GI50,SK-OV-3 ovarian,0.444 µM
same,TGI,SK-OV-3 ovarian,2.84 µM
same,GI50,NCI-H226 lung,0.672 µM
same,TGI,NCI-H226 lung,7.43 µM
same,GI50,HT29 colon,1.48 µM
same,TGI,HT29 colon,16.8 µM
same,GI50,MOLT-4 leukemia,1.06 µM
same,TGI,MOLT-4 leukemia,5 µM
same,GI50,DU-145 prostate,1.67 µM
same,TGI,DU-145 prostate,19.5 µM
same,GI50,OVCAR-3 ovarian,0.83 µM
same,TGI,OVCAR-3 ovarian,4.56 µM
same,GI50,HCT-116 colon,3.49 µM
same,TGI,HCT-116 colon,17.4 µM
same,GI50,HCT-15 colon,1 µM
same,TGI,HCT-15 colon,11.4 µM
same,GI50,SF-539 CNS,1.56 µM
same,TGI,SF-539 CNS,6.73 µM
same,GI50,T-47D breast,0.141 µM
same,TGI,T-47D breast,0.963 µM
same,GI50,HOP-92 NSCLC,0.595 µM
same,TGI,HOP-92 NSCLC,6.68 µM
same,GI50,MDA-MB-231 breast,1.51 µM
same,TGI,MDA-MB-231 breast,4.29 µM
same,GI50,SK-MEL-28 melanoma,1.32 µM
same,TGI,SK-MEL-28 melanoma,13.4 µM
same,GI50,MCF7 breast,0.255 µM
same,TGI,MCF7 breast,11.6 µM
same,GI50,MDA-MB-435,1.72 µM
same,TGI,MDA-MB-435,13 µM
same,GI50,KM12 colon,3.02 µM
same,TGI,KM12 colon,18.5 µM
same,GI50,SF-295 CNS,1.06 µM
same,TGI,SF-295 CNS,5.28 µM
same,GI50,M14 melanoma,1.48 µM
same,TGI,M14 melanoma,14.7 µM
same,GI50,U251 CNS,2.36 µM
same,TGI,U251 CNS,17.5 µM
same,GI50,PC-3 prostate,1.03 µM
same,TGI,PC-3 prostate,21 µM
same,GI50,IGROV1 ovarian,0.194 µM
same,TGI,IGROV1 ovarian,0.979 µM
same,GI50,CCRF-CEM leukemia,1.84 µM
same,TGI,CCRF-CEM leukemia,> 100 µM
same,GI50,A498 renal,0.64 µM
same,TGI,A498 renal,3.54 µM
